Measured values as given in the Kinase Knowledgebase extract (Sharma et al. 2016).

How the values were obtained:
PIK3CG (human) = PIK3CG (human) (UniProt P48736); assay: Assessment of PIK3CG Kinase Activity
PIK3CA (human) = PIK3CA (human) (UniProt P42336); assay: Assessment of PIK3CA Kinase Activity
PIK3CD (Human) [1] = biological target: PIK3CD (Human) (UniProt O00329); assay: Assessment of PIK3CD Kinase Activity
PIK3CD (Human) [2] = biological target: PIK3CD (Human) (UniProt O00329); assay: Assessment of PIK3CD Kinase Activity in RAJI Cells
PIK3CB (Human) = PIK3CB (Human) (UniProt P42338); assay: Assessment of PIK3CB Kinase Activity
Chain of PIK3CB (Human) (P42338 whole entry, looked up): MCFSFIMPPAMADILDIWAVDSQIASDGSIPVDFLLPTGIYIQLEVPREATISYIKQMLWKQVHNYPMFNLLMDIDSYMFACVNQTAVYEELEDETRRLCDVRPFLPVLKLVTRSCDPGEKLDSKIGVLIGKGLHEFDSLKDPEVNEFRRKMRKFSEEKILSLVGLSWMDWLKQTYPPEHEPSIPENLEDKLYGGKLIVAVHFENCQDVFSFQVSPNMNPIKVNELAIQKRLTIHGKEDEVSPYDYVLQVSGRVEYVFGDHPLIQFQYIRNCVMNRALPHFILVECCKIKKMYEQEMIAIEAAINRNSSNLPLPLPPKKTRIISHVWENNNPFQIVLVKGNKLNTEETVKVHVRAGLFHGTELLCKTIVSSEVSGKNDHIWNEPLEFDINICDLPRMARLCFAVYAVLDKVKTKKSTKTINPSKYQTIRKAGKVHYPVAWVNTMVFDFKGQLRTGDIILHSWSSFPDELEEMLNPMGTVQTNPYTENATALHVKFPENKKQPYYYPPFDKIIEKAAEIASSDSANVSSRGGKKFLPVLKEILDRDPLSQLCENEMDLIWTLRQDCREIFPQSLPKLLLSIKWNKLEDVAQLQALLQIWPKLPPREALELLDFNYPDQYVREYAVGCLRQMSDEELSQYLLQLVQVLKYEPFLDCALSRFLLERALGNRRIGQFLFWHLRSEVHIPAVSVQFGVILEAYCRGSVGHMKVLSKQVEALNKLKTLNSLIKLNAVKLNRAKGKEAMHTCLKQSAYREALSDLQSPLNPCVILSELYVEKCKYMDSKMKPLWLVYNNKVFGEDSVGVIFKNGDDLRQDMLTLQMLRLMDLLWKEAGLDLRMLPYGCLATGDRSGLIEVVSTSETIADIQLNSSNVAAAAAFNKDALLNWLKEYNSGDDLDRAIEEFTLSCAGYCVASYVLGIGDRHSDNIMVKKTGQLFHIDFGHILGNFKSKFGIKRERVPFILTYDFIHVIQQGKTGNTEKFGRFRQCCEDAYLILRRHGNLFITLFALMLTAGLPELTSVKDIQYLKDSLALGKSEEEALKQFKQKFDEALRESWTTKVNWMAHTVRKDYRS

Chain of PIK3CA (human) (P42336 whole entry, looked up): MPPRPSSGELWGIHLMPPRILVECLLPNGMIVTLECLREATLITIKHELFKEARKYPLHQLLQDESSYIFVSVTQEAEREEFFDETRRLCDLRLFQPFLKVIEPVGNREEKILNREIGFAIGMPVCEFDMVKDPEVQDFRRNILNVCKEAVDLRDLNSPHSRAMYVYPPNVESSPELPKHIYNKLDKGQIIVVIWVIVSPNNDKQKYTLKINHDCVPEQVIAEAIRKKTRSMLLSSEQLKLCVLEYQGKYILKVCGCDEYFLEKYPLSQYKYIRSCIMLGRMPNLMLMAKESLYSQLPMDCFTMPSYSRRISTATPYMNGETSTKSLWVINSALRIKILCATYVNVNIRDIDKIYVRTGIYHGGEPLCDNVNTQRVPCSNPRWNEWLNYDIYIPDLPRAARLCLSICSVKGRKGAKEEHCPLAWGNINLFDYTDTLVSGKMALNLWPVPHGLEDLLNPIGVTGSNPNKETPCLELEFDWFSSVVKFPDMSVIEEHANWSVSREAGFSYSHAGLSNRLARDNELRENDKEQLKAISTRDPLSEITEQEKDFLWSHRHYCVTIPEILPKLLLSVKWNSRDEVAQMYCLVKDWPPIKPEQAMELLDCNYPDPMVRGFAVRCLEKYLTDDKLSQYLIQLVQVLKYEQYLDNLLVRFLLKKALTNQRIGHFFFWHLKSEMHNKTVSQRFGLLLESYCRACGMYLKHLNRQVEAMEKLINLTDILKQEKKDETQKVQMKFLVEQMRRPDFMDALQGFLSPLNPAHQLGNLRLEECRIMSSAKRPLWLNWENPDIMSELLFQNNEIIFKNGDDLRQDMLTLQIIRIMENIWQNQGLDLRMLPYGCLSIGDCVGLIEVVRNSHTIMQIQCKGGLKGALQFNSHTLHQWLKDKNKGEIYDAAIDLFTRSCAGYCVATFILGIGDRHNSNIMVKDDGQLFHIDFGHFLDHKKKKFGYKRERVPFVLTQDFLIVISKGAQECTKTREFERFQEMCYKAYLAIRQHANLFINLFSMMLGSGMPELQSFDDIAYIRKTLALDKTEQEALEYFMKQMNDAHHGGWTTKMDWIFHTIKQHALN
Chain of PIK3CG (human) (P48736 whole entry, looked up): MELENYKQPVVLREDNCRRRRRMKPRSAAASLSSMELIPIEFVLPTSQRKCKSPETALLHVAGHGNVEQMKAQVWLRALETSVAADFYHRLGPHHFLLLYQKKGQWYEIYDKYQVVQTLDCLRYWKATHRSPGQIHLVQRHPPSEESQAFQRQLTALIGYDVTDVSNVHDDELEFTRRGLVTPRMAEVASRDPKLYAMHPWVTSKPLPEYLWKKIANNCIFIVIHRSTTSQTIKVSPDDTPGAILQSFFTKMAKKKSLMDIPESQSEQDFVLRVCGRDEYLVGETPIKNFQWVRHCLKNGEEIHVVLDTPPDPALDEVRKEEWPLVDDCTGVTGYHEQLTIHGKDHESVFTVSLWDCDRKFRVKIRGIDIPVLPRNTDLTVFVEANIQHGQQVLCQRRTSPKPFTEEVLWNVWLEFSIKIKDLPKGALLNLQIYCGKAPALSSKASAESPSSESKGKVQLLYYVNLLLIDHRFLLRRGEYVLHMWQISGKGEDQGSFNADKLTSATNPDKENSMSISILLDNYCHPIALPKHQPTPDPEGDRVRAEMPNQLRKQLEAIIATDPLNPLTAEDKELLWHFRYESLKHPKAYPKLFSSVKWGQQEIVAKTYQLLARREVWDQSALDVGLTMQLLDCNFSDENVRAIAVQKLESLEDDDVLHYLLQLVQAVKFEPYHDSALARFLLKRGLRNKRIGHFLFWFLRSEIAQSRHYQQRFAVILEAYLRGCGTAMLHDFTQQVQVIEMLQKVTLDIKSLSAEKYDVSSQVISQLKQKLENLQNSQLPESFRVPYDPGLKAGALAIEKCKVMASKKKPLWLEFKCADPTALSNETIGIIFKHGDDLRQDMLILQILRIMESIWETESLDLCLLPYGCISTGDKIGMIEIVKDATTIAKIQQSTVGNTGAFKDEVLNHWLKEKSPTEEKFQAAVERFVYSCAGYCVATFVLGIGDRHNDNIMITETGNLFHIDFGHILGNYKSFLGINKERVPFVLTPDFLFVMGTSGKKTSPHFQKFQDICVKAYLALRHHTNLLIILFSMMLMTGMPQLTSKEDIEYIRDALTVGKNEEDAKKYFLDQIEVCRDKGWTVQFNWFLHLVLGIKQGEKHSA
Chain of PIK3CD (Human) (O00329 whole entry, looked up): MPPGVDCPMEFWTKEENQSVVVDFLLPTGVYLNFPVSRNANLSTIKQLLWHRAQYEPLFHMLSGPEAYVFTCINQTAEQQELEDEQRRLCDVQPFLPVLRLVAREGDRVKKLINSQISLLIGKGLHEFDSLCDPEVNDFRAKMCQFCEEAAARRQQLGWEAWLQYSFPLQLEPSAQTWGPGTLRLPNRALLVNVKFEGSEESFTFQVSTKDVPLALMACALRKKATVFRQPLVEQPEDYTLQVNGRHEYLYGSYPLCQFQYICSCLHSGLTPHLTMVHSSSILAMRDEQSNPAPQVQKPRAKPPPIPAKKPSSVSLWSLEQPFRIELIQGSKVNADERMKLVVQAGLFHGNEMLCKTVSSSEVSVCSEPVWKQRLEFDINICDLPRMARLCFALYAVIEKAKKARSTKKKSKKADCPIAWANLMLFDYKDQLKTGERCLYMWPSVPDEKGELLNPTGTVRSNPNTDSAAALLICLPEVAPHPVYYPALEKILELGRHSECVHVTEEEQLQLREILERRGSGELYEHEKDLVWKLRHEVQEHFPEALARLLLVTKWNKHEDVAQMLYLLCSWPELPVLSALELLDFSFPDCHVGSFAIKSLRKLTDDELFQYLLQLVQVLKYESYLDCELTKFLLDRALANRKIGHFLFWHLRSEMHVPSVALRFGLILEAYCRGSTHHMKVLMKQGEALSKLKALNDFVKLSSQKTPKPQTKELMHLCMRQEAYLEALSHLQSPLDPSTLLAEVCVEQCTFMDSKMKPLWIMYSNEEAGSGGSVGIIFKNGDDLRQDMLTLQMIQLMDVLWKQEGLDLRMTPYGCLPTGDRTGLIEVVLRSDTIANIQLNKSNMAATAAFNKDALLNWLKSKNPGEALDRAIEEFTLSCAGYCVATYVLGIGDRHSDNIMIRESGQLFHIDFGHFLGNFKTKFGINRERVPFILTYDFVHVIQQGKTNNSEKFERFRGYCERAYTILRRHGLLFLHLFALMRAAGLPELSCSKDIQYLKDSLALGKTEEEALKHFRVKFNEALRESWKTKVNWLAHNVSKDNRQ

Row | Structure (SMILES) | IC50 (PIK3CG (human)) [µM] | IC50 (PIK3CA (human)) [µM] | IC50 (PIK3CD (Human) [1]) [µM] | IC50 (PIK3CD (Human) [2]) [µM] | IC50 (PIK3CB (Human)) [µM]
1 | COc1cc(-c2cccc3cc([C@H](C)Nc4nc(N)ncc4C#N)n(-c4ccccc4)c(=O)c23)ccn1 | < 0.1 | 0.1 to 1 | < 0.1 | < 0.1 | 
2 | C[C@H](Nc1nc(N)ncc1-c1cnc(S(C)(=O)=O)s1)c1cc2cccc(Cl)c2c(=O)n1-c1ccccc1 | < 0.1 | > 10 | < 0.1 | < 0.1 | 
3 | COc1ncc(-c2cccc3cc([C@H](C)Nc4ncnc(N)c4C#N)n(-c4ccon4)c(=O)c23)cn1 |  |  | 0.1 to 1 | < 0.1 | > 10
4 | C[C@H](Nc1nc(N)ncc1-c1cscn1)c1cc2cccc(-c3ccc(=O)n(C)c3)c2c(=O)n1-c1ccccc1 | < 0.1 | > 10 | < 0.1 | < 0.1 | > 10
5 | C[C@H](Nc1nc(N)ncc1-c1cccc(S(N)(=O)=O)c1)c1cc2cccc(Cl)c2c(=O)n1-c1ccccc1 | < 0.1 |  | 0.1 to 1 | < 0.1 | > 10
6 | C[C@H](Nc1nc(N)ncc1-c1ccc(S(C)(=O)=O)nc1)c1cc2cccc(Cl)c2c(=O)n1-c1ccccc1 | 0.1 to 1 | > 10 |  | < 0.1 | 
7 | COc1ncc(-c2cccc3cc([C@H](C)Nc4ncnc(N)c4C#N)n(-c4ccccc4)c(=O)c23)cn1 | 0.1 to 1 | > 10 | < 0.1 | < 0.1 | > 10
8 | C[C@H](Nc1ncnc(N)c1C#N)c1cc2cccc(Cl)c2c(=O)n1-c1ccon1 | 0.1 to 1 | > 10 | 0.1 to 1 | < 0.1 | > 10
9 | C[C@H](Nc1nc(N)ncc1-c1cccc(N(C)S(C)(=O)=O)c1)c1cc2cccc(Cl)c2c(=O)n1-c1ccccc1 | < 0.1 |  | 0.1 to 1 | < 0.1 | 
10 | C[C@H](Nc1nc(N)ncc1-c1cccc(S(=O)(=O)N2CCCCC2)c1)c1cc2cccc(Cl)c2c(=O)n1-c1ccccc1 | < 0.1 | 0.1 to 1 | 0.1 to 1 | < 0.1 | 0.1 to 1
11 | CC(C)n1c([C@H](C)Nc2ncnc(N)c2C#N)cc2cccc(Cl)c2c1=O | 0.1 to 1 |  | < 0.1 | < 0.1 | 
12 | Cc1ncc(-c2cccc3cc([C@H](C)Nc4nc(N)ncc4C#N)n(-c4ccon4)c(=O)c23)cn1 |  | > 10 | < 0.1 | < 0.1 | > 10
13 | C[C@H](Nc1nc(N)ncc1C#N)c1cc2cccc(Cl)c2c(=O)n1-c1cccc(C#N)c1 | 0.1 to 1 |  | < 0.1 | < 0.1 | 0.1 to 1
14 | C=CS(=O)(=O)Nc1cccc(-c2cnc(N)nc2N[C@@H](C)c2cc3cccc(Cl)c3c(=O)n2-c2ccccc2)c1 | < 0.1 | 0.1 to 1 | < 0.1 | < 0.1 | 0.1 to 1
15 | CC(=O)c1cnc(N)nc1N[C@@H](C)c1cc2cccc(Cl)c2c(=O)n1-c1ccccc1 | < 0.1 | 0.1 to 1 | < 0.1 | < 0.1 | < 0.1
16 | COc1ncc(-c2cnc(N)nc2N[C@@H](C)c2cc3cccc(Cl)c3c(=O)n2-c2ccccc2)s1 | < 0.1 | > 10 | < 0.1 | < 0.1 | 
17 | C[C@H](Nc1nc(N)ncc1-c1ccoc1)c1cc2cccc(Cl)c2c(=O)n1-c1ccccc1 | < 0.1 | > 10 | 0.1 to 1 | < 0.1 | > 10
18 | C[C@H](Nc1nc(N)ncc1-c1cccc(S(=O)(=O)N2CCCC2)c1)c1cc2cccc(Cl)c2c(=O)n1-c1ccccc1 | < 0.1 | > 10 | < 0.1 | < 0.1 | 0.1 to 1
19 | COc1ncc(-c2cccc3cc([C@H](C)Nc4nc(N)ncc4-c4cncs4)n(-c4ccccc4)c(=O)c23)cn1 | < 0.1 |  | < 0.1 | < 0.1 | 
20 | COc1cc(-c2cccc3cc(CNc4nc(N)ncc4C#N)n(-c4ccccc4)c(=O)c23)ccn1 | 0.1 to 1 | > 10 | < 0.1 | < 0.1 | > 10
21 | C[C@H](Nc1nc(N)ncc1C(=O)C1CC1)c1cc2cccc(Cl)c2c(=O)n1-c1ccccc1 |  |  |  | < 0.1 | > 10
22 | C[C@H](Nc1ncnc(N)c1C#N)c1cc2cccc(Cl)c2c(C(=O)NC2CCOCC2)n1 |  | > 10 | 0.1 to 1 | < 0.1 | > 10
23 | C[C@H](Nc1ncncc1-c1cccc(S(=O)(=O)N(C)C)c1)c1cc2cccc(Cl)c2c(=O)n1-c1ccccc1 | 0.1 to 1 |  | 0.1 to 1 | < 0.1 | > 10
24 | CCOc1nc(-c2cnc(N)nc2N[C@@H](C)c2cc3cccc(-c4cnc(OC)nc4)c3c(=O)n2-c2ccccc2)cs1 | 0.1 to 1 |  | < 0.1 | < 0.1 | 
